Test results from DBAASP.
Converted amounts (≈) assume the structure as drawn.

Experiments:
Test in all cases: ≥ marks a high value that may be exact or a test limit, other limits are often not marked, values filed in µg/mL are converted to µM
[1] = tested on: Staphylococcus aureus ATCC 43300
Escherichia coli ML-35p = tested on: Escherichia coli ML-35p
Bacillus subtilis = tested on: Bacillus subtilis
[2] = tested on: Staphylococcus aureus ATCC 25923
[3] = tested on: Candida albicans ATCC 2002
[4] = tested on: Pseudomonas aeruginosa ATCC 27853
[5] = tested on: Pseudomonas aeruginosa PAO1
[6] = tested on: Escherichia coli ATCC 25922
[7] = tested on: Candida albicans ATCC 90028
[8] = tested on: Cryptococcus neoformans ATCC 208821
[9] = tested on: Acinetobacter baumannii ATCC 19606
[10] = tested on: Klebsiella pneumoniae ATCC 700603
[11] = tested on: Staphylococcus aureus ATCC 33591
[12] = tested on: Escherichia coli ATCC 2592
[13] = tested on: Candida albicans ATCC 10231
[14] = tested on: Cryptococcus neoformans ATCC 32045
[15] = tested on: Pseudomonas aeruginosa ATCC 10145

CC[C@H](C)[C@H](NC(=O)[C@H](C)NC(=O)[C@@H](NC(=O)[C@@H](NC(=O)[C@H](CCCCN)NC(=O)[C@@H](NC(=O)[C@H](CCCCN)NC(=O)[C@H](CC(=O)O)NC(=O)[C@H](CCCN=C(N)N)NC(=O)[C@@H](NC(=O)[C@@H](N)CO)[C@@H](C)CC)[C@@H](C)CC)[C@@H](C)O)[C@@H](C)CC)C(=O)N[C@@H](CC(=O)O)C(=O)N[C@@H](CC(C)C)C(=O)N[C@@H](C)C(=O)N[C@@H](CCCCN)C(=O)N[C@@H](CO)C(=O)N[C@@H](C)C(=O)NCC(=O)N[C@H](C(=O)NCC(=O)N[C@H](C(=O)N[C@@H](CC(C)C)C(=O)N[C@@H](CCCCN)C(=O)N[C@H](C(=O)N[C@@H](CC(C)C)C(=O)N[C@H](C(=O)N[C@H]1CSSC[C@@H](C(=O)O)NC(=O)[C@H](CO)NC(=O)[C@H](CCCCN)NC(=O)[C@H](CC(N)=O)NC(=O)[C@H](CC(C)C)NC(=O)[C@H](CCCCN)NC1=O)[C@@H](C)CC)[C@@H](C)O)C(C)C)[C@@H](C)O [SIRDKIKTIAIDLAKSAGTGVLKTLICKLNKSC]
MIC [1]: 3.57 µM (≈ 12.5 µg/mL) | MIC (Escherichia coli ML-35p): 7.14 µM (≈ 25 µg/mL) | MIC (Bacillus subtilis): 5.35 µM (≈ 18.7 µg/mL) | MIC [2]: 4.28 µM (≈ 15 µg/mL) | MIC [3]: 5.35 µM (≈ 18.7 µg/mL)

CC(C)C[C@H](NC(=O)[C@H](C)NC(=O)CNC(=O)[C@H](Cc1ccccc1)NC(=O)[C@H](CC(C)C)NC(=O)[C@H](CC(C)C)NC(=O)[C@@H]1CCCN1C(=O)[C@H](Cc1ccccc1)NC(=O)[C@@H](N)Cc1ccccc1)C(=O)N[C@@H](CO)C(=O)N[C@@H](CO)C(=O)N[C@@H](Cc1cnc[nH]1)C(=O)N[C@@H](CC(C)C)C(=O)N1CCC[C@H]1C(=O)N[C@@H](CCCCN)C(=O)N[C@@H](CC(C)C)C(=O)N[C@@H](Cc1ccccc1)C(N)=O [FFPLLFGALSSHLPKLF]
MIC [1]: 3.88 µM (≈ 7.5 µg/mL) | MIC [4]: 1.94 µM (≈ 3.75 µg/mL) | MIC (Escherichia coli ML-35p): 7.75 µM (≈ 15 µg/mL) | MIC (Bacillus subtilis): 3.88 µM (≈ 7.5 µg/mL) | MIC [5]: 1.94 µM (≈ 3.75 µg/mL) | MIC [2]: 1.94 µM (≈ 3.75 µg/mL) | MIC [3]: 1.94 µM (≈ 3.75 µg/mL)

CC(C)C[C@H](NC(=O)[C@H](CCCN=C(N)N)NC(=O)[C@@H]1CCCN1C(=O)[C@H](CCCN=C(N)N)NC(=O)[C@H](Cc1cnc[nH]1)NC(=O)[C@H](Cc1cnc[nH]1)NC(=O)[C@@H](N)CO)C(=O)N[C@@H](Cc1ccccc1)C(=O)N[C@@H](Cc1cnc[nH]1)C(=O)N[C@@H](CCCN=C(N)N)C(=O)N[C@@H](Cc1cnc[nH]1)C(=O)N[C@@H](CCCN=C(N)N)C(=O)N[C@@H](Cc1cnc[nH]1)C(=O)O [SHHRPRLFHRHRH]
MIC [6]: > 18 µM | MIC [7]: 18 µM (≈ 32 µg/mL) | MIC [8]: 18 µM (≈ 32 µg/mL) | MIC [1]: > 18 µM | MIC [4]: > 18 µM | MIC [9]: > 18 µM | MIC [10]: > 18 µM

NC(N)=NCCC[C@H](NC(=O)[C@H](CCCN=C(N)N)NC(=O)[C@H](CS)NC(=O)[C@H](CCCN=C(N)N)NC(=O)[C@H](Cc1cnc[nH]1)NC(=O)[C@H](CO)NC(=O)[C@H](CCCN=C(N)N)NC(=O)[C@H](CS)NC(=O)[C@H](CS)NC(=O)[C@H](CCCN=C(N)N)NC(=O)[C@H](Cc1cnc[nH]1)NC(=O)[C@H](Cc1cnc[nH]1)NC(=O)[C@@H](N)CO)C(=O)O [SHHRCCRSHRCRR]
MIC [6]: > 18.9 µM | MIC [7]: 18.9 µM (≈ 32 µg/mL) | MIC [8]: 4.72 µM (≈ 8 µg/mL) | MIC [1]: 18.9 µM (≈ 32 µg/mL) | MIC [4]: > 18.9 µM | MIC [9]: > 18.9 µM | MIC [10]: > 18.9 µM

C[C@H](NC(=O)[C@H](Cc1ccccc1)NC(=O)[C@H](CCCCN)NC(=O)[C@H](CCCCN)NC(=O)[C@H](C)NC(=O)[C@H](Cc1ccccc1)NC(=O)[C@H](CCCCN)NC(=O)[C@H](CCCCN)NC(=O)[C@H](C)NC(=O)[C@H](Cc1ccccc1)NC(=O)[C@H](CCCCN)NC(=O)[C@H](CCCCN)NC(=O)[C@H](C)NC(=O)[C@H](Cc1ccccc1)NC(=O)[C@H](CCCCN)NC(=O)[C@H](CCCCN)NC(=O)[C@H](C)NC(=O)[C@H](Cc1ccccc1)NC(=O)[C@H](CCCCN)NC(=O)[C@H](CCCCN)NC(=O)[C@H](C)NC(=O)[C@H](Cc1ccccc1)NC(=O)[C@@H](N)CCCCN)C(=O)N[C@@H](CCCCN)C(=O)O [KFAKKFAKKFAKKFAKKFAKKFAK]
MIC [11]: ≥ 61.7 µM | MIC [12]: 3.95 µM (≈ 11.3 µg/mL) | MIC [13]: 34.9 µM (≈ 100 µg/mL) | MIC [14]: 7.9 µM (≈ 22.6 µg/mL) | MIC [15]: 5.58 µM (≈ 16 µg/mL)

C[C@H](NC(=O)[C@H](CCCCN)NC(=O)[C@H](Cc1ccccc1)NC(=O)[C@H](C)NC(=O)[C@H](CCCCN)NC(=O)[C@H](Cc1ccccc1)NC(=O)[C@H](C)NC(=O)[C@H](CCCCN)NC(=O)[C@H](Cc1ccccc1)NC(=O)[C@H](C)NC(=O)[C@H](CCCCN)NC(=O)[C@H](Cc1ccccc1)NC(=O)[C@H](C)NC(=O)[C@H](CCCCN)NC(=O)[C@H](Cc1ccccc1)NC(=O)[C@H](C)NC(=O)[C@H](CCCCN)NC(=O)[C@H](Cc1ccccc1)NC(=O)[C@H](C)NC(=O)[C@H](CCCCN)NC(=O)[C@@H](N)Cc1ccccc1)C(=O)O [FKAFKAFKAFKAFKAFKAFKA]
MIC [11]: ≥ 205 µM | MIC [12]: 9.26 µM (≈ 22.6 µg/mL) | MIC [13]: 145 µM (≈ 354 µg/mL) | MIC [14]: 2.32 µM (≈ 5.66 µg/mL) | MIC [15]: 13.1 µM (≈ 32 µg/mL)

CC(C)C[C@H](NC(=O)[C@H](CCCN=C(N)N)NC(=O)[C@@H]1CCCN1C(=O)[C@H](CCCN=C(N)N)NC(=O)[C@H](Cc1cnc[nH]1)NC(=O)[C@H](Cc1cnc[nH]1)NC(=O)[C@@H](N)CO)C(=O)N[C@@H](Cc1ccccc1)C(=O)N[C@@H](Cc1cnc[nH]1)C(=O)N[C@@H](CCCN=C(N)N)C(=O)N[C@@H](CCCN=C(N)N)C(=O)N[C@@H](CCCN=C(N)N)C(=O)N[C@@H](Cc1cnc[nH]1)C(=O)O [SHHRPRLFHRRRH]
MIC [6]: > 17.9 µM | MIC [7]: 17.9 µM (≈ 32 µg/mL) | MIC [8]: 17.9 µM (≈ 32 µg/mL) | MIC [1]: > 17.9 µM | MIC [4]: > 17.9 µM | MIC [9]: > 17.9 µM | MIC [10]: > 17.9 µM

CC(C)C[C@H](NC(=O)[C@H](CCCN=C(N)N)NC(=O)[C@H](CC(C)C)NC(=O)[C@H](CCCN=C(N)N)NC(=O)[C@H](CC(C)C)NC(=O)[C@H](CCCN=C(N)N)NC(=O)[C@H](CC(C)C)NC(=O)[C@H](CCCN=C(N)N)NC(=O)[C@H](CC(C)C)NC(=O)[C@H](CCCN=C(N)N)NC(=O)[C@H](CC(C)C)NC(=O)[C@H](CCCN=C(N)N)NC(=O)[C@H](CC(C)C)NC(=O)[C@H](CCCN=C(N)N)NC(=O)[C@H](CC(C)C)NC(=O)[C@H](CCCN=C(N)N)NC(=O)[C@@H](N)CC(C)C)C(=O)N[C@@H](CCCN=C(N)N)C(=O)O [LRLRLRLRLRLRLRLRLR]
MIC [11]: ≥ 72.4 µM | MIC [12]: ≥ 51.2 µM | MIC [13]: 145 µM (≈ 354 µg/mL) | MIC [14]: ≥ 36 µM | MIC [15]: ≥ 102 µM

CC(C)C[C@H](NC(=O)[C@H](CCCCN)NC(=O)[C@H](CC(C)C)NC(=O)[C@H](CCCCN)NC(=O)[C@H](CC(C)C)NC(=O)[C@H](CCCCN)NC(=O)[C@H](CC(C)C)NC(=O)[C@H](CCCCN)NC(=O)[C@H](CC(C)C)NC(=O)[C@H](CCCCN)NC(=O)[C@H](CC(C)C)NC(=O)[C@H](CCCCN)NC(=O)[C@@H](N)CC(C)C)C(=O)N[C@@H](CCCCN)C(=O)O [LKLKLKLKLKLKLK]
MIC [11]: ≥ 207 µM | MIC [12]: 30.9 µM (≈ 52.8 µg/mL) | MIC [13]: 207 µM (≈ 354 µg/mL) | MIC [14]: 1.66 µM (≈ 2.83 µg/mL) | MIC [15]: ≥ 73.2 µM

C[C@H](NC(=O)[C@H](Cc1ccccc1)NC(=O)[C@H](CCCCN)NC(=O)[C@H](CCCCN)NC(=O)[C@H](C)NC(=O)[C@H](Cc1ccccc1)NC(=O)[C@@H](N)CCCCN)C(=O)N[C@@H](CCCCN)C(=O)O [KFAKKFAK]
MIC [11]: ≥ 258 µM | MIC [12]: ≥ 258 µM | MIC [13]: > 258 µM | MIC [14]: ≥ 258 µM | MIC [15]: ≥ 258 µM
